Where a name gives a salt, the structure may show the parent alone.
System: neuronal protein extravasation
Assay: Protein extravasation in dura after electrical stimulation of the trigeminal ganglion
Type: in vivo, rats or guinea pigs
Settings: dose that inhibited the extravasation by 50%, approximated from dose-response curve
Procedure: Harlan Sprague-Dawley rats (225-325 g) or guinea pigs from Charles River Laboratories (225-325 g) were anesthetized with sodium pentobarbital intraperitoneally (65 mg/kg or 45 mg/kg respectively) and placed in a stereotaxic frame (David Kopf Instruments) with the incisor bar set at -3.5 mm for rats or -4.0 mm for guinea pigs. Following a midline sagital scalp incision, two pairs of bilateral holes were drilled through the skull (6 mm posteriorly, 2.0 and 4.0 mm laterally in rats; 4 mm posteriorly and 3.2 and 5.2 mm laterally in guinea pigs, all coordinates referenced to bregma). Pairs of stainless steel stimulating electrodes (Rhodes Medical Systems, Inc.) were lowered through the holes in both hemispheres to a depth of 9 mm (rats) or 10.5 mm (guinea pigs) from dura.
The femoral vein was exposed and a dose of the test compound was injected intravenously (1 mL/kg). Approximately 7 minutes later, a 50 mg/kg dose of Evans Blue, a fluorescent dye, was also injected intravenously. The Evans Blue complexed with proteins in the blood and functioned as a marker for protein extravasation. Exactly 10 minutes post-injection of the test compound, the left trigeminal ganglion was stimulated for 3 minutes at a current intensity of 1.0 mA (5 Hz, 4 msec duration) with a Model 273 potentiostat/ galvanostat (EG&G Princeton Applied Research).
Fifteen minutes following stimulation, the animals were killed and exsanguinated with 20 mL of saline. The top of the skull was removed to facilitate the collection of the dural membranes. The membrane samples were removed from both hemispheres, rinsed with water, and spread flat on microscopic slides. Once dried, the tissues were coverslipped with a 70% glycerol/water solution.
A fluorescence microscope (Zeiss) equipped with a grating monochromator and a spectrophotometer was used to quantify the amount of Evans Blue dye in each sample. An excitation wavelength of approximately 535 nm was utilized and the emission intensity at 600 nm was determined. The microscope was equipped with a motorized stage and also interfaced with a personal computer. This facilitated the computer-controlled movement of the stage with fluorescence measurements at 25 points (500 µm steps) on each dural sample. The mean and standard deviation of the measurements was determined by the computer.
The extravasation induced by the electrical stimulation of the trigeminal ganglion was an ipsilateral effect (i.e. occurs only on the side of the dura in which the trigeminal ganglion was stimulated). This allows the other (unstimulated) half of the dura to be used as a control. The ratio of the amount of extravasation in the dura from the stimulated side compared to the unstimulated side dura was calculated. Saline controls yielded a ratio of approximately 2.0 in rats and 1.8 in guinea pigs. […]

Compound: CNS(=O)(=O)Cc1ccc2[nH]cc(CCN(C)C)c2c1.O=C(O)CCC(=O)O [Compound I, 3-[2-(dimethylamino)ethyl]-N-methyl-1H-indole-5-methanesulfonamide butane-1,4-dioate (1:1)]
- i.v. ID50: 2.6e-08 mmol/kg

Compound: Cn1cc(CCN2CCC(c3c[nH]c4ccc(F)cc34)CC2)cn1 [Compound II, 5-fluoro-3-<1-<2-<1-methyl-1H-pyrazol-4-yl>ethyl>-4-piperidinyl>-1H-indole hydrochloride]
- i.v. ID50: 8.6e-10 mmol/kg

Compound: O=C(O)C(=O)O.Oc1ccc2[nH]cc(C3CCNCC3)c2c1 [Compound III, 5-hydroxy-3-(4-piperidinyl)-1H-indole oxalate]
- i.v. ID50: 8.9e-09 mmol/kg

Compound: CCN(CC)C1CCc2cccc(Cl)c2C1.Cl (centres unmarked) [Compound IV, 8-chloro-2-diethylamino-1,2,3,4-tetrahydronaphthalene hydrochloride]
- i.v. ID50: 1.2e-07 mmol/kg

Compound: CN(C)C1CCc2[nH]c3ccc(O)cc3c2C1 (centres unmarked) [Compound V, 6-hydroxy-3-dimethylamino-1,2,3,4-tetrahydrocarbazole]
- i.v. ID50: 8.7e-09 mmol/kg

Reference: patent publication EP0994109A2, “1-(3-(1-Pyrrolidinyl)propyl)-3-ethylcarbodiimide and a solid phase coupling agent” (ELI LILLY AND COMPANY, priority 1995, dated 1997)
